Measurements published in patent publication US9113629B2, “4-amino-6-(4-substituted-phenyl)-picolinates and 6-amino-2-(4-substituted-phenyl)-pyrimidine-4-carboxylates and their use as herbicides” (DOW AGROSCIENCES LLC, priority 2013, dated 2015).
Where two headings read alike, the source gives them in different places.

Legend:
[1] = test system: Key Broadleaf Weed and Crop Species; test: Post-emergent Test II herbicidal activity (Table 5); format: in vivo; details: post-emergence, 336 h, 14 days after application; for pest or weed control at 70 g/ha: application rate 70 g ai/ha; for pest or weed control at 140 g/ha: application rate 140 g ai/ha
Procedure, shortened: (§1)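 Scoring: visual, 0–100% injury at 14 d versus untreated. Treatment: overhead track spray, 187 L/ha, onto plants at the first–second true leaf stage. Growth: greenhouse, ~15 h light, 23–29 °C day, 22–28 °C night.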

[2] = test system: Key Grass and Sedge Weeds as well as Grass Crops; test: Post-emergent Test II herbicidal activity (Table 6); format: in vivo; details: post-emergence, 336 h; for pest or weed control at 70 g/ha: 70 g ai/ha; for pest or weed control at 140 g/ha: 140 g ai/ha
Procedure, shortened: as §1

[3] = ABUTH: velvetleaf (Abutilon theophrasti), read-out: Visual Growth Reduction (%) 14 Days After Application, ABUTH
[4] = AMARE: redroot pigweed (Amaranthus retroflexus), read-out: Visual Growth Reduction (%) 14 Days After Application, AMARE
[5] = BRSNN: oilseed-rape, canola (Brassica napus), read-out: Visual Growth Reduction (%) 14 Days After Application, BRSNN
[6] = CHEAL: lambsquarters (Chenopodium album), read-out: Visual Growth Reduction (%) 14 Days After Application, CHEAL
[7] = EPHHL: wild poinsettia (Euphorbia heterophylla), read-out: Visual Growth Reduction (%) 14 Days After Application, EPHHL
[8] = HELAN: sunflower (Helianthus annuus), read-out: Visual Growth Reduction (%) 14 Days After Application, HELAN
[9] = VIOTR: wild pansy (Viola tricolor), read-out: Visual Growth Reduction (%) 14 Days After Application, VIOTR
[10] = CYPES: yellow nutsedge (Cyperus esculentus), read-out: Visual Growth Reduction (%) 14 Days After Application, CYPES
[11] = DIGSA: crabgrass (Digitaria sanguinalis), read-out: Visual Growth Reduction (%) 14 Days After Application, DIGSA
[12] = ECHCG: barnyardgrass (Echinochloa crus-galli), read-out: Visual Growth Reduction (%) 14 Days After Application, ECHCG
[13] = ORYSA: rice (Oryza sativa), crop, read-out: Visual Growth Reduction (%) 14 Days After Application, ORYSA
[14] = SETFA: giant foxtail (Setaria faberi), read-out: Visual Growth Reduction (%) 14 Days After Application, SETFA
[15] = SORVU: grain sorghum (Sorghum vulgare), read-out: Visual Growth Reduction (%) 14 Days After Application, SORVU
[16] = TRZSS (wheat, Triticum aestivum), crop, read-out: Visual Growth Reduction (%) 14 Days After Application, TRZSS
[17] = ZEAMX: maize, corn (Zea mays), crop, read-out: Visual Growth Reduction (%) 14 Days After Application, ZEAMX

melting point: 145 to 146 °C
SMILES: Cc1ccc(-c2nc(C(=O)O)c(Cl)c(N)c2F)cc1F [Compound 212]
pest or weed control at 70 g/ha [1, 3]: 95 to 100% | pest or weed control at 140 g/ha [1, 3]: 95 to 100% | pest or weed control at 70 g/ha [1, 4]: 95 to 100% | pest or weed control at 140 g/ha [1, 4]: 95 to 100% | pest or weed control at 70 g/ha [1, 5]: 95 to 100% | pest or weed control at 140 g/ha [1, 5]: 95 to 100% | pest or weed control at 70 g/ha [1, 6]: 95 to 100% | pest or weed control at 140 g/ha [1, 6]: 95 to 100% | pest or weed control at 70 g/ha [1, 7]: 95 to 100% | pest or weed control at 140 g/ha [1, 7]: 95 to 100% | pest or weed control at 70 g/ha [1, 8]: 95 to 100% | pest or weed control at 140 g/ha [1, 8]: 95 to 100% | pest or weed control at 70 g/ha [1, 9]: 0 to 29% | pest or weed control at 140 g/ha [1, 9]: 0 to 29% | pest or weed control at 70 g/ha [2, 10]: 0 to 29% | pest or weed control at 140 g/ha [2, 10]: 30 to 44% | pest or weed control at 70 g/ha [2, 11]: 0 to 29% | pest or weed control at 140 g/ha [2, 11]: 30 to 44% | pest or weed control at 70 g/ha [2, 12]: 75 to 84% | pest or weed control at 140 g/ha [2, 12]: 85 to 94% | pest or weed control at 70 g/ha [2, 13]: 60 to 74% | pest or weed control at 140 g/ha [2, 13]: 60 to 74% | pest or weed control at 70 g/ha [2, 14]: 45 to 59% | pest or weed control at 140 g/ha [2, 14]: 75 to 84% | pest or weed control at 70 g/ha [2, 15]: 60 to 74% | pest or weed control at 140 g/ha [2, 15]: 75 to 84% | pest or weed control at 70 g/ha [2, 16]: 60 to 74% | pest or weed control at 140 g/ha [2, 16]: 60 to 74% | pest or weed control at 70 g/ha [2, 17]: 75 to 84% | pest or weed control at 140 g/ha [2, 17]: 85 to 94%
